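48-hour exposure; five concentrations; linearly interpolated endpoints. The concentration for 50% growth inhibition is given as GI50.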 The source made the active and inactive calls. Rule as the data show it: active = GI50 up to about 1.1 µM and inactive = higher. Peptide text beside a SMILES is read from it. * marks the point of attachment. Boc = CC(C)(C)OC(=O)*; OtBu = CC(C)(C)O*
Tests used:
Assay in all cases: NCI-60 cell line screen, 48 h
[1] = test system: 786-0
[2] = test system: T47D
[3] = test system: SF-268
[4] = test system: SK-MEL-28
[5] = test system: RXF 393
[6] = test system: NCI-H522
[7] = test system: COLO 205
[8] = test system: RPMI-8226
[9] = test system: SF-539
[10] = test system: NCI-H23
[11] = test system: UACC-257
[12] = test system: EKVX
[13] = test system: MDA-MB-435
[14] = test system: OVCAR-3
[15] = test system: SK-MEL-2
[16] = test system: PC-3
[17] = test system: CAKI-1
[18] = test system: HL-60

Row | Compound | GI50 [1] | GI50 [2] | GI50 [3] | GI50 [4] | GI50 [5] | GI50 [6] | GI50 [7] | GI50 [8] | GI50 [9] | GI50 [10] | GI50 [11] | GI50 [12] | GI50 [13] | GI50 [14] | GI50 [15] | GI50 [16] | GI50 [17] | GI50 [18]
1 | CC(=O)OC1CCC2(C)C(CCC3C2CC(=O)C2(C)C3CC(N3CC3)C2C(C)=O)C1 (stereo not given) | 18.6 µM (inactive) | 18.7 µM (inactive) | 11.6 µM (inactive) | 30.7 µM (inactive) | 16.5 µM (inactive) | 12.2 µM (inactive) | 15.8 µM (inactive) | 18 µM (inactive) | 11.8 µM (inactive) | 16.7 µM (inactive) | 17.3 µM (inactive) | 18.4 µM (inactive) | 17.9 µM (inactive) | 26.2 µM (inactive) | 17.5 µM (inactive) | 14.1 µM (inactive) | 16.1 µM (inactive) | –
2 | c1ccc(CCN2CCCCCC2)nc1 | > 100 µM (inactive) | > 100 µM (inactive) | > 100 µM (inactive) | > 100 µM (inactive) | > 100 µM (inactive) | > 100 µM (inactive) | > 100 µM (inactive) | > 100 µM (inactive) | – | > 100 µM (inactive) | – | 66.8 µM (inactive) | > 100 µM (inactive) | > 100 µM (inactive) | > 100 µM (inactive) | > 100 µM (inactive) | > 100 µM (inactive) | –
3 | Cc1nn(C(=O)c2ccccc2O)c2c1C(c1ccc3ccccc3c1O)SC(=N)N2 (stereo not given) | 6.47 µM (inactive) | 1.87 µM (inactive) | 4.89 µM (inactive) | 5.16 µM (inactive) | 6.56 µM (inactive) | – | 2.4 µM (inactive) | 4.34 µM (inactive) | 4.53 µM (inactive) | 4.97 µM (inactive) | 3.53 µM (inactive) | 9.79 µM (inactive) | 5.93 µM (inactive) | 2.69 µM (inactive) | 4.39 µM (inactive) | 3.66 µM (inactive) | 3.52 µM (inactive) | –
4 | CCOC(=O)/C(C(=O)Nc1cccc(Cl)c1)=C(/N)N1CCOCC1 | > 100 µM (inactive) | > 100 µM (inactive) | > 100 µM (inactive) | > 100 µM (inactive) | > 100 µM (inactive) | > 100 µM (inactive) | > 100 µM (inactive) | > 100 µM (inactive) | > 100 µM (inactive) | > 100 µM (inactive) | > 100 µM (inactive) | > 100 µM (inactive) | > 100 µM (inactive) | > 100 µM (inactive) | > 100 µM (inactive) | > 100 µM (inactive) | > 100 µM (inactive) | > 100 µM (inactive)
5 | C=C1CC23CCC4C(C)(C(=O)O)CCCC4(C)C2CCC1C3 (stereo not given) | 40.6 µM (inactive) | 38 µM (inactive) | 63.1 µM (inactive) | > 100 µM (inactive) | 33.5 µM (inactive) | 23.8 µM (inactive) | 19.7 µM (inactive) | 47.4 µM (inactive) | 74 µM (inactive) | 41.9 µM (inactive) | 36.8 µM (inactive) | 20.6 µM (inactive) | 62.1 µM (inactive) | 30.4 µM (inactive) | 42.3 µM (inactive) | 37.7 µM (inactive) | 22.3 µM (inactive) | –
6 | O=C1CN(/N=C/c2ccc(-c3ccc(F)cc3)o2)C(=O)N1 | > 100 µM (inactive) | > 100 µM (inactive) | > 100 µM (inactive) | 25.4 µM (inactive) | > 100 µM (inactive) | 21.1 µM (inactive) | 29.7 µM (inactive) | 28 µM (inactive) | 34.4 µM (inactive) | 82.6 µM (inactive) | 21.8 µM (inactive) | > 100 µM (inactive) | 18.5 µM (inactive) | > 100 µM (inactive) | 34.6 µM (inactive) | > 100 µM (inactive) | 58.6 µM (inactive) | 55.6 µM (inactive)
7 | CCOc1ccc(N/C(Cl)=C(Cl)\C(=C(\Nc2ccc(OCC)cc2)n2nnc3ccccc32)[N+](=O)[O-])cc1 | 4.02 µM (inactive) | 4.47 µM (inactive) | 6.98 µM (inactive) | 7.83 µM (inactive) | 2.28 µM (inactive) | 1.08 µM (active) | 7.38 µM (inactive) | 4.18 µM (inactive) | 4.2 µM (inactive) | 6.38 µM (inactive) | 8.3 µM (inactive) | 12.2 µM (inactive) | 6.95 µM (inactive) | 4.12 µM (inactive) | 16.7 µM (inactive) | 7.4 µM (inactive) | 1.14 µM (inactive) | –
8 | COC1OC(COC(=O)NCCCCC(=O)C(F)(F)F)C(O)C(O)C1O (stereo not given) | > 100 µM (inactive) | > 100 µM (inactive) | > 100 µM (inactive) | > 100 µM (inactive) | > 100 µM (inactive) | – | > 100 µM (inactive) | > 100 µM (inactive) | > 100 µM (inactive) | > 100 µM (inactive) | > 100 µM (inactive) | – | > 100 µM (inactive) | > 100 µM (inactive) | > 100 µM (inactive) | > 100 µM (inactive) | > 100 µM (inactive) | > 100 µM (inactive)
9 | COc1cc(/C=C2\N=C(c3ccccc3)N(c3nc4cc(C)c(C)cc4s3)C2=O)ccc1O | 43 µM (inactive) | 44.1 µM (inactive) | 44.8 µM (inactive) | 71.3 µM (inactive) | 20.4 µM (inactive) | – | 40.1 µM (inactive) | 20.8 µM (inactive) | 29.4 µM (inactive) | – | 21.3 µM (inactive) | 23.3 µM (inactive) | 12.6 µM (inactive) | 23.7 µM (inactive) | 26.3 µM (inactive) | 30.3 µM (inactive) | 36.6 µM (inactive) | 18.7 µM (inactive)
10 | Cn1c(=O)c2nc3nnc(C#N)c(N)n3c2n(C)c1=O | > 100 µM (inactive) | 33 µM (inactive) | > 100 µM (inactive) | > 100 µM (inactive) | 79.4 µM (inactive) | > 100 µM (inactive) | > 100 µM (inactive) | > 100 µM (inactive) | 90.2 µM (inactive) | – | – | > 100 µM (inactive) | > 100 µM (inactive) | > 100 µM (inactive) | > 100 µM (inactive) | > 100 µM (inactive) | 51.8 µM (inactive) | > 100 µM (inactive)
11 | CC(C)N(C(=O)c1ccc(NCc2cc(O)ccc2O)cc1)C(C)C | 13 µM (inactive) | 11.8 µM (inactive) | 17.6 µM (inactive) | 16.9 µM (inactive) | 13.1 µM (inactive) | 1.59 µM (inactive) | 30.4 µM (inactive) | – | 12.9 µM (inactive) | 17.9 µM (inactive) | 17.4 µM (inactive) | 14.7 µM (inactive) | 17.1 µM (inactive) | 11.6 µM (inactive) | 22.3 µM (inactive) | 18.8 µM (inactive) | 14.2 µM (inactive) | 2.26 µM (inactive)
12 | COC1(OC)CCCCCCCCC(OC)(OC)CCCCCCCC1 | > 100 µM (inactive) | > 100 µM (inactive) | > 100 µM (inactive) | > 100 µM (inactive) | > 100 µM (inactive) | > 100 µM (inactive) | > 100 µM (inactive) | – | > 100 µM (inactive) | > 100 µM (inactive) | > 100 µM (inactive) | > 100 µM (inactive) | > 100 µM (inactive) | > 100 µM (inactive) | > 100 µM (inactive) | > 100 µM (inactive) | > 100 µM (inactive) | > 100 µM (inactive)
13 | Cc1ccc(C2SC(=N)Nc3c2c(C)nn3C(=O)c2ccccc2O)cc1 (stereo not given) | > 10 µM (inactive) | > 10 µM (inactive) | 9.44 µM (inactive) | > 10 µM (inactive) | > 10 µM (inactive) | – | > 10 µM (inactive) | > 10 µM (inactive) | 5.68 µM (inactive) | 7 µM (inactive) | > 10 µM (inactive) | > 10 µM (inactive) | 3.78 µM (inactive) | > 10 µM (inactive) | 6.31 µM (inactive) | > 10 µM (inactive) | > 10 µM (inactive) | –
14 | CCNc1nnc(-c2ccccc2Nc2ccccc2-c2nnc(NCC)s2)s1 | 11 µM (inactive) | 5.32 µM (inactive) | 13.4 µM (inactive) | 18.4 µM (inactive) | 21.6 µM (inactive) | 6.75 µM (inactive) | > 32.8 µM (inactive) | 14 µM (inactive) | – | 14 µM (inactive) | 23.6 µM (inactive) | 20.9 µM (inactive) | 17.4 µM (inactive) | 18.3 µM (inactive) | 9.77 µM (inactive) | 17 µM (inactive) | 2.85 µM (inactive) | –
15 | O=S(=O)(O)c1cccc2cccc(/N=N/c3c(O)ccc4ccccc34)c12 | > 100 µM (inactive) | > 100 µM (inactive) | > 100 µM (inactive) | – | > 100 µM (inactive) | > 100 µM (inactive) | > 100 µM (inactive) | – | > 100 µM (inactive) | > 100 µM (inactive) | > 100 µM (inactive) | 92.3 µM (inactive) | > 100 µM (inactive) | > 100 µM (inactive) | > 100 µM (inactive) | > 100 µM (inactive) | > 100 µM (inactive) | > 100 µM (inactive)
16 | CC(C)(C)OC(=O)CC(NC(=O)OC(C)(C)C)C(=O)NC(Cc1ccccc1)C(N)=O (stereo not given) (Boc-Asp(OtBu)-Phe-NH2; configuration not given here) | > 100 µM (inactive) | > 100 µM (inactive) | > 100 µM (inactive) | > 100 µM (inactive) | > 100 µM (inactive) | > 100 µM (inactive) | > 100 µM (inactive) | > 100 µM (inactive) | > 100 µM (inactive) | > 100 µM (inactive) | > 100 µM (inactive) | > 100 µM (inactive) | > 100 µM (inactive) | > 100 µM (inactive) | > 100 µM (inactive) | > 100 µM (inactive) | > 100 µM (inactive) | –

From ChEMBL document CHEMBL1201862, “PubChem BioAssay data set” (2004)
